Reference: the NIST ThermoML archive (doi:10.1007/s10765-009-0648-5)

How the values were obtained:
[1] = wn = mass fraction of the nth substance listed; conditions: 101 kPa, Liquid
[2] = 101 kPa, Liquid

CN(C)C=O [dimethylformamide] + CCC[n+]1ccn(C)c1.[Br-]
[1], w2 = 0
Conditions | mass density [kg/m3] | speed of sound [m/s]
288.15 K | 953.442 | 1496.6
293.15 K | 948.685 | 1477.3
298.15 K | 943.917 | 1457.8
303.15 K | 939.142 | 1438.4
308.15 K | 934.357 | 1419

C[S+](C)[O-] [dimethyl sulfoxide] + CCC[n+]1ccn(C)c1.[Br-]
[1], w2 = 0
Conditions | mass density [kg/m3] | speed of sound [m/s]
288.15 K | 1105.34 | 1519.1
293.15 K | 1100.31 | 1502.2
298.15 K | 1095.28 | 1485.2
303.15 K | 1090.25 | 1468.3
308.15 K | 1085.23 | 1451.5

CC#N [acetonitrile] + CCC[n+]1ccn(C)c1.[Br-]
[1], w2 = 0
Conditions | mass density [kg/m3] | speed of sound [m/s]
288.15 K | 787.376 | 1319.1
293.15 K | 782.007 | 1299
298.15 K | 776.609 | 1278.8
303.15 K | 771.183 | 1258.5
308.15 K | 765.725 | 1238.4

C[S+](C)[O-] [dimethyl sulfoxide]
[2]
Conditions | mass density [kg/m3] | speed of sound [m/s]
288.15 K | 1105.34 | 1519.1
293.15 K | 1100.31 | 1502.2
298.15 K | 1095.28 | 1485.2
303.15 K | 1090.25 | 1468.3
308.15 K | 1085.23 | 1451.5

CC#N [acetonitrile]
[2]
Conditions | mass density [kg/m3] | speed of sound [m/s]
288.15 K | 787.376 | 1319.1
293.15 K | 782.007 | 1299
298.15 K | 776.609 | 1278.8
303.15 K | 771.183 | 1258.5
308.15 K | 765.725 | 1238.4

CCC[n+]1ccn(C)c1.[Br-] [1-methyl-3-propylimidazolium bromide] + C[S+](C)[O-]
[1]
Conditions | mass density, 288.15 K [kg/m3] | mass density, 293.15 K [kg/m3] | mass density, 298.15 K [kg/m3] | mass density, 303.15 K [kg/m3] | mass density, 308.15 K [kg/m3] | speed of sound, 288.15 K [m/s] | speed of sound, 293.15 K [m/s] | speed of sound, 298.15 K [m/s] | speed of sound, 303.15 K [m/s] | speed of sound, 308.15 K [m/s]
w1 = 0.0077 | 1107.07 | 1102.06 | 1097.05 | 1092.04 | 1087.03 | 1520.9 | 1504.2 | 1487.3 | 1470.4 | 1453.6
w1 = 0.0102 | 1107.62 | 1102.61 | 1097.6 | 1092.6 | 1087.6 | 1521.5 | 1504.7 | 1487.8 | 1470.9 | 1454.2
w1 = 0.012 | 1108.05 | 1103.04 | 1098.04 | 1093.03 | 1088.03 | 1521.9 | 1505.2 | 1488.3 | 1471.4 | 1454.7
w1 = 0.0159 | 1108.91 | 1103.91 | 1098.91 | 1093.92 | 1088.93 | 1523 | 1506 | 1489.2 | 1472.3 | 1455.7
w1 = 0.0203 | 1109.88 | 1104.88 | 1099.89 | 1094.91 | 1089.93 | 1523.8 | 1507 | 1490.2 | 1473.4 | 1456.7
w1 = 0.0252 | 1110.97 | 1105.98 | 1100.99 | 1096.02 | 1091.04 | 1524.8 | 1507.8 | 1491 | 1474.2 | 1457.6
w1 = 0.0297 | 1111.95 | 1106.98 | 1102 | 1097.03 | 1092.07 | 1525.8 | 1509.1 | 1492.3 | 1475.5 | 1458.9
w1 = 0.0356 | 1113.27 | 1108.3 | 1103.33 | 1098.37 | 1093.42 | 1527 | 1510.4 | 1493.6 | 1476.9 | 1460.3
w1 = 0.0423 | 1114.74 | 1109.78 | 1104.82 | 1099.87 | 1094.93 | 1528.5 | 1511.6 | 1494.9 | 1478.2 | 1461.7
w1 = 0.0502 | 1116.49 | 1111.55 | 1106.6 | 1101.67 | 1096.73 | 1530.2 | 1513.5 | 1496.9 | 1480.2 | 1463.6
w1 = 0.0599 | 1118.62 | 1113.69 | 1108.76 | 1103.84 | 1098.93 | 1532.1 | 1515.3 | 1498.7 | 1482.1 | 1465.7
w1 = 1 | 1323.47 | 1319.84 | 1316.22 | 1312.6 | 1308.97 | 1699.3 | 1685 | 1672 | 1659.9 | 1648.3

CCC[n+]1ccn(C)c1.[Br-] [1-methyl-3-propylimidazolium bromide]
[2]
Conditions | mass density [kg/m3] | speed of sound [m/s]
288.15 K | 1323.47 | 1699.3
293.15 K | 1319.84 | 1685
298.15 K | 1316.22 | 1672
303.15 K | 1312.6 | 1659.9
308.15 K | 1308.97 | 1648.3

CN(C)C=O [dimethylformamide]
[2]
Conditions | mass density [kg/m3] | speed of sound [m/s]
288.15 K | 953.442 | 1496.6
293.15 K | 948.685 | 1477.3
298.15 K | 943.917 | 1457.8
303.15 K | 939.142 | 1438.4
308.15 K | 934.357 | 1419
